Measurements: ChEMBL document CHEMBL3885881, “DrugMatrix”

Species on record: Rattus norvegicus
Assay: DrugMatrix - Regimen: Daily Repeat
Type: toxicity, organism-based, Sprague-Dawley
Design: regimen Daily Repeat, gender Male, age 6-8 weeks
Details: in vivo, sc, […], route mini-PUMP - SUBCUTANEOUS, dose 4.2 mg/Kg, vehicle 100 % SALINE; for ABSOLUTE EOSINOPHIL / ABSOLUTE LYMPHOCYTE / ABSOLUTE MONOCYTE / ABSOLUTE SEGMENTED NEUTROPHIL / BASOPHIL / EOSINOPHIL / ERYTHROCYTE COUNT / HEMATOCRIT / HEMOGLOBIN / LEUKOCYTE COUNT / LYMPHOCYTE / MEAN CORPUSCULAR HEMOGLOBIN / MEAN CORPUSCULAR HEMOGLOBIN CONCENTRATION / MEAN CORPUSCULAR VOLUME / MONOCYTE / NEUTROPHIL / NUCLEATED RED BLOOD CELLS / PLATELET COUNT / ABSOLUTE BASOPHIL: tissue Blood; for ALANINE AMINOTRANSFERASE / ALBUMIN / ALKALINE PHOSPHATASE / ASPARTATE AMINOTRANSFERASE / BLOOD UREA NITROGEN / CARBON DIOXIDE / CHLORIDE / CHOLESTEROL / CREATININE / GLUCOSE / LACTATE DEHYDROGENASE / LIPASE / PHOSPHORUS / POTASSIUM / SODIUM / TOTAL BILIRUBIN / TOTAL PROTEIN / URIC ACID: tissue Plasma
[1] = 72 h, dose level M1, time 3 day
[2] = 120 h, dose level M1, time 5 day

CC(C)NCC(O)c1ccc(O)c(O)c1 (stereo not given) [ISOPROTERENOL]
ABSOLUTE EOSINOPHIL [1]: 46 CELLS/uL
ABSOLUTE LYMPHOCYTE [1]: 13359 CELLS/uL
ABSOLUTE MONOCYTE [1]: 389.67 CELLS/uL
ABSOLUTE SEGMENTED NEUTROPHIL [1]: 972 CELLS/uL
BASOPHIL [1]: 0%
EOSINOPHIL [1]: 0.33%
ERYTHROCYTE COUNT [1]: 5.5 x10E6/uL
HEMATOCRIT [1]: 32.97%
HEMOGLOBIN [1]: 12.13 G/DL
LEUKOCYTE COUNT [1]: 14.77 x10E3/uL
LYMPHOCYTE [1]: 90.33%
MEAN CORPUSCULAR HEMOGLOBIN [1]: 22.1 pg
MEAN CORPUSCULAR HEMOGLOBIN CONCENTRATION [1]: 36.8 G/DL
MEAN CORPUSCULAR VOLUME [1]: 60.03 fL
MONOCYTE [1]: 2.67%
NEUTROPHIL [1]: 6.67%
NUCLEATED RED BLOOD CELLS [1]: 0.33 /100WBC
PLATELET COUNT [1]: 1142.67 x10E3/uL
ALANINE AMINOTRANSFERASE [1]: 50.67 u/L
ALBUMIN [1]: 3.93 G/DL
ALKALINE PHOSPHATASE [1]: 337 u/L
ASPARTATE AMINOTRANSFERASE [1]: 73.67 u/L
BLOOD UREA NITROGEN [1]: 13.33 mg/dL
CARBON DIOXIDE [1]: 25.33 mmol/L
CHLORIDE [1]: 103.67 MEQ/L
CHOLESTEROL [1]: 77.33 mg/dL
CREATININE [1]: 0.18 mg/dL
GLUCOSE [1]: 140.33 mg/dL
LACTATE DEHYDROGENASE [1]: 151 u/L
LIPASE [1]: 9 u/L
PHOSPHORUS [1]: 10.17 mg/dL
POTASSIUM [1]: 7.09 MEQ/L
SODIUM [1]: 146.4 MEQ/L
TOTAL BILIRUBIN [1]: 0.2 mg/dL
TOTAL PROTEIN [1]: 5.9 G/DL
URIC ACID [1]: 2.33 mg/dL
ABSOLUTE BASOPHIL [2]: 0 CELLS/uL
ABSOLUTE EOSINOPHIL [2]: 84 CELLS/uL
ABSOLUTE LYMPHOCYTE [2]: 11630 CELLS/uL
ABSOLUTE MONOCYTE [2]: 485 CELLS/uL
ABSOLUTE SEGMENTED NEUTROPHIL [2]: 2701 CELLS/uL
BASOPHIL [2]: 0%
EOSINOPHIL [2]: 0.5%
ERYTHROCYTE COUNT [2]: 5.61 x10E6/uL
HEMATOCRIT [2]: 34.6%
HEMOGLOBIN [2]: 12.85 G/DL
LEUKOCYTE COUNT [2]: 14.9 x10E3/uL
LYMPHOCYTE [2]: 78.5%
MEAN CORPUSCULAR HEMOGLOBIN [2]: 22.95 pg
MEAN CORPUSCULAR HEMOGLOBIN CONCENTRATION [2]: 37.15 G/DL
MEAN CORPUSCULAR VOLUME [2]: 61.75 fL
MONOCYTE [2]: 3%
NEUTROPHIL [2]: 18%
NUCLEATED RED BLOOD CELLS [2]: 0.5 /100WBC
PLATELET COUNT [2]: 1202 x10E3/uL
ALANINE AMINOTRANSFERASE [2]: 57 u/L
ALBUMIN [2]: 4.05 G/DL
ALKALINE PHOSPHATASE [2]: 244.5 u/L
ASPARTATE AMINOTRANSFERASE [2]: 74 u/L
BLOOD UREA NITROGEN [2]: 11.5 mg/dL
CARBON DIOXIDE [2]: 27 mmol/L
CHLORIDE [2]: 104.5 MEQ/L
CHOLESTEROL [2]: 70 mg/dL
CREATININE [2]: 0.15 mg/dL
GLUCOSE [2]: 152 mg/dL
LACTATE DEHYDROGENASE [2]: 156 u/L
LIPASE [2]: 8.5 u/L
PHOSPHORUS [2]: 13.1 mg/dL
POTASSIUM [2]: 6.73 MEQ/L
SODIUM [2]: 149.4 MEQ/L
TOTAL BILIRUBIN [2]: 0.15 mg/dL
TOTAL PROTEIN [2]: 5.9 G/DL
URIC ACID [2]: 2.25 mg/dL
ABSOLUTE BASOPHIL (dose level M1, time 14 day): 0 CELLS/uL
ABSOLUTE EOSINOPHIL (dose level M1, time 14 day): 0 CELLS/uL
ABSOLUTE LYMPHOCYTE (dose level M1, time 14 day): 12693.75 CELLS/uL
ABSOLUTE MONOCYTE (dose level M1, time 14 day): 445.5 CELLS/uL
ABSOLUTE SEGMENTED NEUTROPHIL (dose level M1, time 14 day): 2010.75 CELLS/uL
BASOPHIL (dose level M1, time 14 day): 0%
EOSINOPHIL (dose level M1, time 14 day): 0%
ERYTHROCYTE COUNT (dose level M1, time 14 day): 5.78 x10E6/uL
HEMATOCRIT (dose level M1, time 14 day): 35.65%
HEMOGLOBIN (dose level M1, time 14 day): 12.93 G/DL
LEUKOCYTE COUNT (dose level M1, time 14 day): 15.15 x10E3/uL
LYMPHOCYTE (dose level M1, time 14 day): 83.25%
MEAN CORPUSCULAR HEMOGLOBIN (dose level M1, time 14 day): 22.38 pg
MEAN CORPUSCULAR HEMOGLOBIN CONCENTRATION (dose level M1, time 14 day): 36.27 G/DL
MEAN CORPUSCULAR VOLUME (dose level M1, time 14 day): 61.73 fL
MONOCYTE (dose level M1, time 14 day): 3.25%
NEUTROPHIL (dose level M1, time 14 day): 13.5%
NUCLEATED RED BLOOD CELLS (dose level M1, time 14 day): 0 /100WBC
PLATELET COUNT (dose level M1, time 14 day): 856.5 x10E3/uL
ALANINE AMINOTRANSFERASE (dose level M1, time 14 day): 62.75 u/L
ALBUMIN (dose level M1, time 14 day): 4.12 G/DL
ALKALINE PHOSPHATASE (dose level M1, time 14 day): 336 u/L
ASPARTATE AMINOTRANSFERASE (dose level M1, time 14 day): 83.25 u/L
BLOOD UREA NITROGEN (dose level M1, time 14 day): 16.5 mg/dL
CARBON DIOXIDE (dose level M1, time 14 day): 32 mmol/L
CHLORIDE (dose level M1, time 14 day): 100.75 MEQ/L
CHOLESTEROL (dose level M1, time 14 day): 75.75 mg/dL
CREATININE (dose level M1, time 14 day): 0.21 mg/dL
GLUCOSE (dose level M1, time 14 day): 144 mg/dL
LACTATE DEHYDROGENASE (dose level M1, time 14 day): 122.25 u/L
LIPASE (dose level M1, time 14 day): 8.75 u/L
PHOSPHORUS (dose level M1, time 14 day): 13.35 mg/dL
POTASSIUM (dose level M1, time 14 day): 7.05 MEQ/L
SODIUM (dose level M1, time 14 day): 145.78 MEQ/L
TOTAL BILIRUBIN (dose level M1, time 14 day): 0.1 mg/dL
TOTAL PROTEIN (dose level M1, time 14 day): 6.1 G/DL
URIC ACID (dose level M1, time 14 day): 1.88 mg/dL
